Reference: ChEMBL document CHEMBL5550127, “1,2,3-Triazole-totarol conjugates as potent PIP5K1α lipid kinase inhibitors” (Bioorg Med Chem, 2024)
Calls of active or inactive are those of the source. No cut-off for these calls is given here.

Key:
LNCaP [1] = assay: Antiproliferative activity against human LNCaP cells assessed as inhibition of cell growth by measuring reduction in cell confluence at 5 to 20 uM measured every 2 hrs for 48 hrs by IncuCyte live-cell imaging analysis; format: functional, cell-based; details: dose 5-20 µM
PC-3 [2] = assay: Antiproliferative activity against human PC-3 cells assessed as inhibition of cell growth by measuring reduction in cell confluence at 10 to 20 uM measured every 2 hrs for 72 hrs by IncuCyte live-cell imaging analysis; format: functional, cell-based; details: dose 10-20 µM
LNCaP [3] = assay: Antiproliferative activity against human LNCaP cells assessed as inhibition of cell growth by measuring reduction in cell confluence at 10 to 20 uM measured every 2 hrs for 72 hrs by IncuCyte live-cell imaging analysis; format: functional, cell-based; details: dose 10-20 µM
LNCaP [4] = assay: Induction of morphological changes in human LNCaP cells assessed as change in number of cells at 10 uM measured after 0 to 72 hrs by IncuCyte live-cell imaging based phase contrast microscopic analysis; format: functional; details: time 0-72 hrs
PC-3 [5] = assay: Induction of morphological changes in human PC-3 cells assessed as change in cell shape at 10 uM measured after 0 to 72 hrs by IncuCyte live-cell imaging based phase contrast microscopic analysis; format: functional; details: time 0-72 hrs
LNCaP [6] = assay: Antiproliferative activity against human LNCaP cells assessed as inhibition of cell growth by measuring reduction in cell confluence at 1 to 5 uM measured every 2 hrs for 72 hrs by IncuCyte live-cell imaging analysis; format: functional, cell-based; details: dose 1-5 µM
DU-145 [7] = assay: Antiproliferative activity against human DU-145 cells assessed as inhibition of cell growth by measuring reduction in cell confluence at 1 to 5 uM measured every 2 hrs for 72 hrs by IncuCyte live-cell imaging analysis; format: functional, cell-based; details: dose 1-5 µM
DU-145 [8] = assay: Induction of morphological changes in human DU-145 cells assessed as change in number of cells at 10 uM measured after 0 to 72 hrs by IncuCyte live-cell imaging based phase contrast microscopic analysis; format: functional; details: time 0-72 hrs
DU-145 [9] = assay: Induction of morphological changes in human DU-145 cells assessed as change in cell shape at 10 uM measured after 0 to 72 hrs by IncuCyte live-cell imaging based phase contrast microscopic analysis; format: functional; details: time 0-72 hrs
DU-145 [10] = assay: cells; details: Homo sapiens, DU-145, 72 h
Description: Antiproliferative activity against human DU-145 cells assessed as inhibition of cell growth measured after 72 hrs by IncuCyte live-cell imaging analysis

PC-3 [11] = assay: cells; details: Homo sapiens, PC-3, 72 h
Description: Antiproliferative activity against human PC-3 cells assessed as inhibition of cell growth measured after 72 hrs by IncuCyte live-cell imaging analysis

DU-145 [12] = assay: Antiproliferative activity against human DU-145 cells assessed as inhibition of cell growth by measuring reduction in cell confluence at 10 to 20 uM measured every 2 hrs for 72 hrs by IncuCyte live-cell imaging analysis; format: functional, cell-based; details: dose 10-20 µM
LNCaP [13] = assay: cells; details: Homo sapiens, 72 h
Description: Antiproliferative activity against human LNCaP cells assessed as inhibition of cell growth measured after 72 hrs by IncuCyte live-cell imaging analysis

PC-3 [14] = assay: Induction of morphological changes in human PC-3 cells assessed as change in number of cells at 10 uM measured after 0 to 72 hrs by IncuCyte live-cell imaging based phase contrast microscopic analysis; format: functional; details: time 0-72 hrs
PC-3 [15] = assay: Antiproliferative activity against human PC-3 cells assessed as inhibition of cell growth by measuring negative AUC values at 20 uM measured after 48 hrs by IncuCyte live-cell imaging analysis; format: functional, cell-based
DU-145 [16] = assay: Antiproliferative activity against human DU-145 cells assessed as inhibition of cell growth by measuring negative AUC values at 20 uM measured after 48 hrs by IncuCyte live-cell imaging analysis; format: functional, cell-based
LNCaP [17] = assay: Induction of morphological changes in human LNCaP cells assessed as change in cell shape at 10 uM measured after 0 to 72 hrs by IncuCyte live-cell imaging based phase contrast microscopic analysis; format: functional; details: time 0-72 hrs
LNCaP [18] = assay: Antiproliferative activity against human LNCaP cells assessed as inhibition of cell growth by measuring negative AUC values at 20 uM measured after 48 hrs by IncuCyte live-cell imaging analysis; format: functional, cell-based
Casein kinase 2 = Casein kinase 2 (Homo sapiens, UniProt P67870+P68400+P19784+Q8NEV1); assay: Inhibition of CK2 (unknown origin) using RRRDDDSDDD-EDANS as substrate measured after 15 mins by capillary electrophoresis; format: protein assay
LNCaP [19] = assay: Antiproliferative activity against human LNCaP cells assessed as inhibition of cell growth by measuring reduction in cell confluence at 20 uM measured every 2 hrs for 48 hrs by IncuCyte live-cell imaging analysis; format: functional, cell-based
[20] = target: Phosphatidylinositol 4-phosphate 5-kinase type-1 alpha (Homo sapiens) (UniProt Q99755); assay: (§1) Inhibition of recombinant human PIP5K1alpha expressed in Escherichia coli BL21 (DE3) using phosphatidylinositol-4-phosphate as substrate at 10 uM preincubated for 10 mins followed by substrate and ATP addition and further incubated under dark condition with constant shaking for 30 mins by capillary electrophoresis; details: time 40.0 min
[21] = target: Phosphatidylinositol 4-phosphate 5-kinase type-1 alpha (Homo sapiens) (UniProt Q99755); assay: as §1, with “substrate at 1 to 10 uM” for “substrate at 10 uM”; details: dose 1-10 µM, time 40.0 min

Sequence of Phosphatidylinositol 4-phosphate 5-kinase type-1 alpha (Homo sapiens) (Q99755 whole entry): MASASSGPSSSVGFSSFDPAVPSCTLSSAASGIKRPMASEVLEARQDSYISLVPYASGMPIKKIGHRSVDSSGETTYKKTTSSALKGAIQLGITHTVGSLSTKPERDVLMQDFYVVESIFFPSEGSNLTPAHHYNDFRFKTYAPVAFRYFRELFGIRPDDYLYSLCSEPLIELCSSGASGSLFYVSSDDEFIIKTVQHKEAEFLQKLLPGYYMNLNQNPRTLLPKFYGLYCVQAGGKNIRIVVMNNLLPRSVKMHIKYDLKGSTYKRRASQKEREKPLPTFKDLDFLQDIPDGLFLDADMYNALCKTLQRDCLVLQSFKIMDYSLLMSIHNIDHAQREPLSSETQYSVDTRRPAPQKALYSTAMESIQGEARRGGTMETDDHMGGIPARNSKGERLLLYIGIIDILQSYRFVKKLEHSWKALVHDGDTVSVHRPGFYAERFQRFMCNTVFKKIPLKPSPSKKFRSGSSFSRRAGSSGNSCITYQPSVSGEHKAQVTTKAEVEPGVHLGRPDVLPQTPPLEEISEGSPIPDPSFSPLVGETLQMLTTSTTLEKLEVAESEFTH

SMILES: CN(C)CCN1C(=O)c2cccc3c(-n4cc(CO)nn4)ccc(c23)C1=O
- Activity (LNCaP [1]): Active

SMILES: CC(C)c1c(OCc2cn(C3=CCC4C(=O)N(CCN(C)C)C(=O)c5cccc3c54)nn2)ccc2c1CC[C@H]1C(C)(C)CCC[C@]21C (stereo partly drawn)
- Activity (PC-3 [2]): Active
- Activity (LNCaP [3]): Active
- Activity (LNCaP [4]): Active
- Activity (PC-3 [5]): Active
- Activity (LNCaP [6]): inactive
- Activity (DU-145 [7]): inactive
- Activity (DU-145 [8]): Active
- Activity (DU-145 [9]): Active
- EC50 (DU-145 [10]): 8.57 µM
- EC50 (PC-3 [11]): 4.89 µM
- Activity (DU-145 [12]): Active
- EC50 (LNCaP [13]): 15.7 µM
- Activity (PC-3 [14]): Active
- Activity (PC-3 [15]): Active
- Activity (DU-145 [16]): Active
- Activity (LNCaP [17]): Active
- Activity (LNCaP [18]): Active

SMILES: CC(C)c1c(OCc2cn(-c3cccc([N+](=O)[O-])c3)nn2)ccc2c1CC[C@H]1C(C)(C)CCC[C@]21C
- IC50 (Casein kinase 2): 0.91 µM

SMILES: COc1ccc(-n2cc(COc3ccc4c(c3C(C)C)CC[C@H]3C(C)(C)CCC[C@]43C)nn2)cc1
- IC50 (Casein kinase 2): 4.1 µM

SMILES: CC(C)c1c(O)ccc2c1CC[C@H]1C(C)(C)CCC[C@]21C
- Activity (LNCaP [19]): inactive
- inhibition [20]: inactive

SMILES: CCCCCCCCCCCn1cc(COc2ccc3c(c2C(C)C)CC[C@H]2C(C)(C)CCC[C@]32C)nn1
- inhibition [21]: inactive
